Test system: Pulmonary hypertension (PAH) rats
Experiment: Effect on monocrotaline (MCT) pulmonary hypertension (PAH) model rats
Type: in vivo, rat
Description: Pulmonary hypertension (PAH) rats, being monocrotaline (MCT) intraperitoneal injected, were divided into 4 groups: control group (n=7), 50 mg/kg captopril group (n=7), 10 mg/kg S-nitrosocaptopril group (n=7), 50 mg/kg S-nitrosocaptopril group (n=7) and health group (n=9). Rats of all groups were orally administered once a day for 30 days.

Question: Which “average pleural effusion of dead rats” value (50 mg/kg oral once a day) does the source give for `C[C@H](CS)C(=O)N1CCC[C@H]1C(=O)O` [captopril, Captopril] here?
Answer: 3.3 mL

Question: What about the “mean right ventricular mass index (RVMI)” value (50 mg/kg oral once a day) of the same compound?
Answer: 53.8%

Question: What about the “number of rats remaining (from 7)” value (50 mg/kg oral once a day for 30 days) of the same compound?
Answer: 3

Reference: patent US20210188773A1, “NOVEL POLYMOPHS OF S-NITROSOCAPTOPRIL (CAP-NO) AND ITS PROCESS FOR PREPARATION” (FUZHOU UNIVERSITY, priority 2018, published 2021)
